Data set [1] addresses T1, human prostanoid FP receptor (Homo sapiens, UniProt P43088).
T1 construct: expressed in transfected cells
Put plainly: FLIPR Ca2+ signaling antagonist assay, FP receptor stable cell line. Type of data set: cell-based. Particulars: HEK-293 EBNA stable cell line; standard agonist 17-phenyl-PGF2α; NA = inactive (no antagonism or Kb 10,000 nM); PAg, Ag not defined. The method in brief:
(§1)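 Peak Fluo-4 fluorescence (ex 470–495, em 515–575 nm) was read for 3.5 min on FLIPR after agonist injection and expressed relative to 10^−6 M standard agonist. Cells were HEK-293 EBNA transfectants. Test compound was added 4.5 min beforehand at 0.1–30 μM, or 0.067–1 μM for TP.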

The target in data set [2] is T2, human prostanoid TP receptor (Homo sapiens, UniProt P21731).
T2 construct: expressed in transfected cells
T2 sequence (P21731 1-343): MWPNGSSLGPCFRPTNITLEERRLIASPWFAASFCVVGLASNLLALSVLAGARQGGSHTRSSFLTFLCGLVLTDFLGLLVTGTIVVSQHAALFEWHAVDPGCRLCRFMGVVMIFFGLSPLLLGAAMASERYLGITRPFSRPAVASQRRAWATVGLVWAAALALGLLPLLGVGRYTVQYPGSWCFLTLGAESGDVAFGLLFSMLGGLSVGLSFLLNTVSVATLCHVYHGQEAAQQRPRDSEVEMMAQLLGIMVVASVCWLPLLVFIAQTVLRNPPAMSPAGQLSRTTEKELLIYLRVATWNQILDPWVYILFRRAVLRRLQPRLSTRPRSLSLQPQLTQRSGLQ
The data set is described as follows: FLIPR Ca2+ signaling antagonist assay, TP receptor stable cell line. Format: cell-based. Particulars: HEK-293 EBNA stable cell line; standard agonist U-46619; NA = inactive (no antagonism or Kb 10,000 nM); PAg, Ag not defined. The method in brief:
as §1

Data set [3] has as its target T3, human prostanoid EP1 receptor (Homo sapiens, UniProt P34995).
T3 construct: expressed in transfected cells
T3 sequence (P34995 1-402): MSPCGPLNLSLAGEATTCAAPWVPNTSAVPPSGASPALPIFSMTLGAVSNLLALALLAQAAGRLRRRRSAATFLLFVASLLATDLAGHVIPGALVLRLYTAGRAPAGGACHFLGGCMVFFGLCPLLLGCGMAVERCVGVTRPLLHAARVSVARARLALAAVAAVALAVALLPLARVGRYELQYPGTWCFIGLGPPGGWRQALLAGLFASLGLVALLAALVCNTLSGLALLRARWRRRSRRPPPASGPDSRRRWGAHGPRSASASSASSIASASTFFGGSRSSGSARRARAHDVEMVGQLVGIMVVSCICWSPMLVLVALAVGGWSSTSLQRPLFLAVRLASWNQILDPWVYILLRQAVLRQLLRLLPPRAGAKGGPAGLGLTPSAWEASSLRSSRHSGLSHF
The data set is described as follows: FLIPR Ca2+ signaling antagonist assay, EP1 receptor stable cell line. Type of data set: cell-based. Particulars: HEK-293 EBNA stable cell line; standard agonist PGE2; NA = inactive (no antagonism or Kb 10,000 nM); PAg, Ag not defined. In short, it runs like this: as §1

Data set [4] deals with T4, human prostanoid EP4 receptor (Homo sapiens, UniProt P35408).
T4 construct: expressed in transfected cells
T4 sequence (P35408 whole entry): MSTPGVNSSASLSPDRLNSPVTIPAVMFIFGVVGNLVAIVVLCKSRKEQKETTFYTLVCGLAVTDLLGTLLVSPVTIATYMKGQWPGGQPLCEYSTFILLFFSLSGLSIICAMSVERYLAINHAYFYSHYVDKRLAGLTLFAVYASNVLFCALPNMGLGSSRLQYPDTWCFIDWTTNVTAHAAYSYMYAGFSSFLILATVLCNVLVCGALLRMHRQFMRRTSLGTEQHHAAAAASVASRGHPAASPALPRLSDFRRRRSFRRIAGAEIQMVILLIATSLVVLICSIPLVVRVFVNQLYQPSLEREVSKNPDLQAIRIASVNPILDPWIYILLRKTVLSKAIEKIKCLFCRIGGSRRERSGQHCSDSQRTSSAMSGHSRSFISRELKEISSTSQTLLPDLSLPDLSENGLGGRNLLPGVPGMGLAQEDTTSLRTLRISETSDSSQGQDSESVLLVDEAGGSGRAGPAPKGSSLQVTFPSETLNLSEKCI
The data set is described as follows: FLIPR Ca2+ signaling antagonist assay, EP4 receptor stable cell line. Type of data set: cell-based. Particulars: HEK-293 EBNA stable cell line; standard agonist PGE2; NA = inactive (no antagonism or Kb 10,000 nM); PAg, Ag not defined. The method in brief:
as §1

The target of data set [5] is T5, human prostanoid IP receptor (Homo sapiens, UniProt P43119).
T5 construct: expressed in transfected cells
T5 sequence (P43119 whole entry): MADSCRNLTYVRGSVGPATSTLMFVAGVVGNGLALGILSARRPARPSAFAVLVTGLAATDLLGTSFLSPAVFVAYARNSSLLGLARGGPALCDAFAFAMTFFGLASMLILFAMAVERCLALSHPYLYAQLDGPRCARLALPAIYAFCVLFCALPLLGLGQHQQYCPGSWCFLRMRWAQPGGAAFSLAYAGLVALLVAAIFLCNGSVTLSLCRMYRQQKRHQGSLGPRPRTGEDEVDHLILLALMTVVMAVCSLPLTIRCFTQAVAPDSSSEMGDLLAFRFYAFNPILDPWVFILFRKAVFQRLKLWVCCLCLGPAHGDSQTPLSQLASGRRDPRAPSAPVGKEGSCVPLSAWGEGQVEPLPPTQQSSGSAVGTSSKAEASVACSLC
The data set is described as follows: FLIPR Ca2+ signaling antagonist assay, IP receptor stable cell line. The note with it: HEK-293 EBNA stable cell line; standard agonist Cicaprost; NA = inactive (no antagonism or Kb 10,000 nM); PAg, Ag not defined. Format: cell-based. The method in brief: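 HEK-293 EBNA cells stably expressing receptor (EP3 co-expressed with chimeric Gqi; EP1, IP, TP without exogenous G protein), Fluo-4 loaded, read on FLIPR at 37° C. Antagonist added 4.5 min before standard agonist (EP1/EP3 PGE2, IP cicaprost 10^−11–10^−5 M; TP U-46619 10^−12–10^−6 M); antagonist 0.1–30 μM, TP 0.067–1 μM; peak fluorescence relative to 10^−6 M agonist.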

For data set [6], the target named is T6, human prostanoid DP1 receptor (Homo sapiens, UniProt Q13258).
T6 construct: expressed in transfected cells
T6 sequence (Q13258 1-359): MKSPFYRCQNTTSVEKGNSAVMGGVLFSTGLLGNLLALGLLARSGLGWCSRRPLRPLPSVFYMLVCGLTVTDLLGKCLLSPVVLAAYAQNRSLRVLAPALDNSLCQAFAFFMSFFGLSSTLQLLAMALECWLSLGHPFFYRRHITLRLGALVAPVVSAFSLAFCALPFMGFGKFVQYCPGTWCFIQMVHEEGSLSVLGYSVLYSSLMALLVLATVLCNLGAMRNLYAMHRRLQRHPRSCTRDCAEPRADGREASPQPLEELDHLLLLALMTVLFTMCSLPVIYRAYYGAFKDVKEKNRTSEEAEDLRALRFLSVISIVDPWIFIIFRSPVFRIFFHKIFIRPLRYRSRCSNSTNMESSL
The data set is described as follows: FLIPR Ca2+ signaling antagonist assay, DP1 receptor stable cell line. Format: cell-based. Particulars: HEK-293 EBNA stable cell line; standard agonist BW 245C; NA = inactive (no antagonism or Kb 10,000 nM); PAg, Ag not defined. The method in brief: as §1

Data set [7] addresses T7, human prostanoid EP2 receptor (Homo sapiens, UniProt P43116).
T7 construct: expressed in transfected cells
The data set is described as follows: FLIPR Ca2+ signaling antagonist assay, EP2 receptor stable cell line. Type of data set: cell-based. Particulars: HEK-293 EBNA stable cell line; standard agonist PGE2; NA = inactive (no antagonism or Kb 10,000 nM); PAg, Ag not defined. The protocol: The above compounds were tested for PG antagonist activity as follows using human recombinant prostanoid receptor (DP1, EP1-4, FP, IP and TP) stable cell lines:
In order to measure the response of Gs and Gi coupled prostanoid receptors as a Ca^2+ signal, chimeric G protein cDNAs were used. Stable cell lines over-expressing human prostanoid DP1, EP1-4, FP, IP, and TP receptors were established as follows:
Briefly, human prostanoid DP1, EP2, and EP4 receptor cDNAs were co-transfected with chimeric Gqs cDNA containing a haemagglutanin (HA) epitope; human prostanoid EP3 receptors were co-transfected with chimeric Gqi-HA; human EP1, FP, IP, and TP receptor cDNAs were expressed with no exogenous G-proteins. Gqs and Gqi chimeric cDNAs (Molecular Devices, Sunnyvale, Calif., U.S.A.), as well as cDNAs of prostanoid receptors, were cloned into a pCEP4 vector with a hygromycin B selection marker. Transfection into HEK-293 EBNA (Epstein-Barr virus nuclear antigen) cells was achieved by the FuGENE 6 transfection Reagent (Roche Applied Science, Indianapolis, Ind., USA). Stable transfectants were selected according to hygromycin resistance. Because Gqs and Gqi contained an HA epitope, G-protein expression was detected by Western blotting analysis using anti-mouse HA monoclonal antibody and horseradish peroxidase (HRP)-conjugated secondary antibody, while functional expression of prostanoid receptors was detected by FLIPR screening (Matias et al., 2004). These stable cell lines were validated using previously published antagonists at 10 μM against serial dilutions of standard agonists by FLIPR functional assays for Ca^2+ Signaling (as described below).
Ca^2+ signaling studies were performed using a FLIPR TETRA system (Molecular Devices, Sunnyvale, Calif., USA) in the 384-format. This is a high-throughput instrument for cell-based assays to monitor Ca^2+ signaling associated with GPCRs and ion channels. Cells were seeded at a density of 5×10^4 cells/well in BioCoat poly-D-lysine coated, black wall, clear bottom 384-well plates (BD Biosciences, Franklin lakes, NJ, USA) and allowed to attach overnight in an incubator at 37° C. The cells were then washed twice with HBSS-HEPES buffer (Hanks' balanced salt solution without bicarbonate and phenol red, 20 mM HEPES, pH 7.4) using an ELx405 Select CW Microplate Washer (BioTek, Winooski, Vt., USA). After 60 min of dye-loading in the dark using the Ca^2+-sensitive dye Fluo-4AM (Invitrogen, Carlsbad, Calif., USA), at a final concentration of 2×10^−6M, the plates were washed 4 times with HBSS-HEPES buffer to remove excess dye and leaving 50 μl of buffer in each well. The plates were then placed in the FLIPR TETRA instrument and allowed to equilibrate at 37° C. AGN-211377 was added in a 25 μl volume to each well to give final concentrations of 0.1 μM, 0.3 μM, 1 μM, 3 μM, 10 μM, and 30 μM; or 0.067 μM, 0.1 μM, 0.2 μM, 0.3 μM, 0.67 μM, and 1 μM for cells over-expressing TP receptors. After 4.5 minutes, a 7-point serial dilution of the standard agonist for the corresponding receptor, in a 25 μl volume was injected at the final concentrations from 10^−11M to 10^−5M in 10-fold serial dilution increments for cells expressing human recombinant DP1, EP1, EP2, EP3, EP4, FP, and IP receptors. The dose range for the standard agonist for human recombinant TP receptors was from 10^−12 M to 10^−6 M. HBSS-HEPES buffer was used as the negative control for the standard agonists. Cells were excited with LED (light emitting diode) excitation at 470-495 nm and emission was measured through an emission filter at 515-575 nm. Assay plates were read for 3.5 minutes using the FLIPR^TETRA. The peak increase in fluorescence intensity was recorded for each well. On each plate, negative controls, dose response of positive controls, and co-treatments of antagonist-agonist for each dose were in triplicates.
Standard agonists were as follows: DP=BW 245C, EP1-EP4=PGE2, FP=17-phenyl-PGF2α, IP=Cicaprost, and TP=U-46619. […]

The test system of data set [8] is Strains TA 98 and TA 100. The data set is described as follows: Ames Test for mutagenicity. Type of data set: cell-based. The method, then:
The compounds of FIGS. 3 and 3(a) were tested for mutagenicity by means of the Ames Test using Strains TA 98 and TA 100. The results were negative for both compounds.

For data set [9], the system named is Dutch-belted pigmented rabbits. The data set is described as follows: Arachidonate induced uveitis, anterior chamber leukocyte infiltration. Format: in vivo, rabbit. The note with it: topical, concentrations of 0.1, 0.3 and 1%; sodium arachidonate challenge; FIG. 12. The method, then: Arachidonate Induced Uveitis
The rational for this protocol is to use arachidonate to directly produce ocular anterior segment uveitis, as opposed to using lipopolysaccharide (LPS) to indirectly release arachidonic acid.
Conscious male or female Dutch-belted pigmented rabbits weighing 2.5-3 kg were used for all in vivo slit lamp studies. Four animals were employed per test group. The right eye of each animal receiving 35 μl of topically administered test and the contralateral left eye of each animal receiving 35 μl of topically administered vehicle (t=0 minutes), followed 30 minutes later by treatment with 35 μl of 0.5% sodium arachidonate onto the surface of both eyes (t=30 minutes). Both eyes were examined by slit lamp 60 minutes following sodium arachdionate challenge (t=90 minutes) at 16× magnification under both white light and blue light illumination at an approximate angle of 45° through 1 mm and 5 mm slit widths.
Measurement of Anterior Chamber Leukocyte Infiltration:
Anterior chamber leukocyte infiltration was measured using a numerical scoring system to estimate cell number per field defined by a 5 mm slit width: 0=no cells per field (no response); 1=1-10 cells per field (mild); 2=11-20 cells per field (moderate); 3=[…] cells per field (severe); 4=>50 cells per filed (florid). Results are reported as the mean score value±S.E.M.

Data set [10] deals with allergic conjunctival itch. The data set is described as follows: Allergic conjunctival itch model. Type of data set: in vivo. The note with it: FIGS. 10 and 11. The method, then:
The compounds of this invention were tested according to the method described in “Characterization of Receptor Subtypes Involved in Prostanoid-Induced Conjunctival Pruritis and Their Role in Mediating Conjunctival Itching”, Vol. 279, No. 1, (JPET) 279, 137-142' 1996 for their efficacy in alleviating itch.

T1 sequence (P43088 whole entry): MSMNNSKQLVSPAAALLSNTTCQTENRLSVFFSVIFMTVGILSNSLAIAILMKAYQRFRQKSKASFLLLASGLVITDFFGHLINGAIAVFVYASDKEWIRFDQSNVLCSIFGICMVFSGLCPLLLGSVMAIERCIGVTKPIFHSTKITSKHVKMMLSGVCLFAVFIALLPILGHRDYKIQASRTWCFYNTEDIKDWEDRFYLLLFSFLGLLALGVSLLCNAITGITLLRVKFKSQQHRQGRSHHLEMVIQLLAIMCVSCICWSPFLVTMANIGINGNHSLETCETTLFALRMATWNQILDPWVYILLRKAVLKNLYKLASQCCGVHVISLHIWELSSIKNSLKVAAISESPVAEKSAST
T7 sequence (P43116 whole entry): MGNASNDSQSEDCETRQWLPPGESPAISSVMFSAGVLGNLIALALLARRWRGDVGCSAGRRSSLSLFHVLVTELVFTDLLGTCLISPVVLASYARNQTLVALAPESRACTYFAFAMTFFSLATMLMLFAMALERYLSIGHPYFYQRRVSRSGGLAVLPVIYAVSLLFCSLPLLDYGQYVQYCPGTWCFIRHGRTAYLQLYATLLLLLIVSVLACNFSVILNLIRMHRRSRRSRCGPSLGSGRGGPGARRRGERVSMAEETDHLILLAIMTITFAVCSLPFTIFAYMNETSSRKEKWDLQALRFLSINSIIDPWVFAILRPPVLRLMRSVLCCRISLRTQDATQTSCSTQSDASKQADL

In general, Kb refers to the affinity of an antagonist, worked out from how it opposes an agonist. `COc1ccc(COc2ccc(Cl)cc2Cn2nc(CCC(=O)O)cc2C)cc1` [Example 31, 3-[1-(5-Chloro-2-(4-methoxybenzyloxy)benzyl)-5-methyl-1H-pyrazol-3-yl]-propionic acid]: the antagonist equilibrium constant (Kb) was 200 nM in data set [1]; 9 nM in [2]; 300 nM in data set [3]; 7400 nM in data set [4]; 1200 nM in data set [5]; 300 nM in [6]. The molecule also displayed a Kb in data set [7] of 2500 nM.

Turning to `CCC(CC)COc1ccc(Cl)cc1Cn1nc(CCC(=O)O)cc1C` [Example 3a, 3-{1-[5-Chloro-2-(2-ethyl-butoxy)-benzyl]-5-methyl-1H-pyrazol-3-yl}-propionic acid], the “mutagenicity (Ames Test)” value in data set [8] is on record as “negative”. In addition, the “anterior chamber leukocyte infiltration (uveitis model)” value in data set [9] was “dose dependent response”. Also, in data set [10], the “number of itch-scratch episodes” value is reported as “significantly lower number of itch-scratch episodes”.

Turning to `Cc1cc(CCC(=O)O)nn1Cc1cc(Br)ccc1OCC1CCC1` [Example 12, 3-[1-(5-Bromo-2-(2-cyclobutylmethoxy)-benzyl)-5-methyl-1H-pyrazol-3-yl]-propionic acid], the Kb in data set [1] stood at 30 nM; in data set [2] it was 30 nM; in [3], 30 nM; in [4] it was 500 nM; in data set [5], 3600 nM; in data set [6] it was 110 nM. The same molecule had a Kb in [7] of 1700 nM.

As for `Cc1cc(CCC(=O)O)nn1Cc1cc(Cl)ccc1OCCC1CCCC1` [Example 39, 3-[1-(5-Chloro-2-(2-cyclopentylethoxy)benzyl)-5-methyl-1H-pyrazol-3-yl]-propionic acid], in data set [1], the antagonist equilibrium constant (Kb) is 300 nM. Further, the “TP (FLIPR) Kb” value in [2] is “PAg”. Further, in data set [3], the “EP1 (FLIPR) Kb” value is “PAg”. The “EP4 (FLIPR) Kb” value in [4] is “PAg”. Further, the “IP (FLIPR) Kb” value in [5] is on record as “PAg”. Moreover, the “DP1 (FLIPR) Kb” value in data set [6] is listed as “PAg”. Moreover, the “EP2 (FLIPR) Kb” value in data set [7] is reported as “PAg”.

On to `CCC(CC)COc1ccc(OC(F)(F)F)cc1Cn1nc(CCC(=O)O)cc1C` [Example 48, 3-[1-[2-(2-Ethyl-butoxy)-5-trifluoromethoxy-benzyl]-5-methyl-1H-pyrazol-3-yl]-propionic acid], for which the Kb in data set [1] amounted to 150 nM; in [2] it was 40 nM; in data set [3], 80 nM; in [4], 400 nM; in data set [5], 2300 nM; in [7], 3000 nM. Also, the “DP1 (FLIPR) Kb” value in data set [6] is listed as “PAg”.
